Results reported in patent publication US8263656B2 (Hoffmann-La Roche Inc., priority 2008, dated 2012).
pIC50: −log10 of the molar value.

Target: T1, human CRTH2 (Homo sapiens, UniProt Q9Y5Y4)
T1 construct: expressed in transfected cells
T1 sequence (Q9Y5Y4 1-395): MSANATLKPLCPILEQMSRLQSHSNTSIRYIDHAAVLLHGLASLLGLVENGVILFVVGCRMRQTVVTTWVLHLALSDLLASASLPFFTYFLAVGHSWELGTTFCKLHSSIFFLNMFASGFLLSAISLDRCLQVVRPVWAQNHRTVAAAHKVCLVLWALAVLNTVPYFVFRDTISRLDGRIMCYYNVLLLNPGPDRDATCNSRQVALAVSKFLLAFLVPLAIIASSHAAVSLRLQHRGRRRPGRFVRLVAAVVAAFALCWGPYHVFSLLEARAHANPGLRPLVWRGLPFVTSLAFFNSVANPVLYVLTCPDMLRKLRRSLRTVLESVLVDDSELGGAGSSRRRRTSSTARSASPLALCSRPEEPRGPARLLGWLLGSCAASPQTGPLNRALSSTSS
Assay: Human CRTH2 Receptor Binding Assay (whole cell, [3H]ramatroban competition)
Conditions: CHO-K1 cells expressing human CRTH2 and G-alpha16; 20 nM [3H]ramatroban; 1 hour, room temperature
Source text: A whole cell receptor binding assay using [^3H]ramatroban as the competing radioactive ligand was employed to evaluate the compound binding activity to human CRTH2. The radioactive ligand [^3H]ramatroban was synthesized according to Sugimoto et. al. (Eur. J. Pharmacol. 524, 30-37, 2005) to a specific activity of 42 Ci/mmol.
A cell line stably expressing human CRTH2 was established by transfecting CHO-K1 cells with two mammalian expression vectors that harbored human CRTH2 and G-alpha16 cDNAs, respectively, using FuGene® 6 transfection reagent (from Roche). Stable clones expressing CRTH2 were selected by staining each clone with BM16 (BD Pharmingen™ from BD Biosciences, a division of Becton, Dickinson and Company), which is a rat monoclonal antibody to human CRTH2. The cells were maintained as monolayer cultures in Ham's F-12 medium containing 10% fetal bovine serum, 100 units/mL penicillin, […] streptomycin, 2 mM glutamine, 0.5 mg/mL G418 (geneticin) for CRTH2, and 0.2 mg/mL hygromycin-B (for G-alpha 16). For whole cell receptor binding assay, the monolayer cells were rinsed once with PBS (phosphate buffered saline), dissociated using diammonium ethylenediaminetetraacetate (Versene™ EDTA from the Dow Chemical Company), and suspended in PBS containing 10 mM MgCl2 and 0.06% BSA (bovine serum albumin) at 1.5×10^6 cells/mL.
The binding reactions (0.2 mL) were performed in 96-well plates at room temperature in PBS containing 1.5×10^5 cells, 10 mM MgCl2, 0.06% BSA, 20 nM [^3H]ramatroban, and test compound at various concentrations. After 1 hour of binding reactions, the cells were harvested on GF™/B filter microplates (microtiter plates with embedded glass fiber from PerkinElmer, Inc.) and washed 5 times with PBS using a Filtermate™ Harvester (a cell harvester that harvests and washes cells from microplates from PerkinElmer, Inc.). The radioactivities bound to the cells were determined using a microplate scintillation counter (TopCount® NXT, from PerkinElmer, Inc.) after adding 50 μL of Microscint™ 20 scintillation fluid (from PerkinElmer, Inc.) to each well of the filter plates. The radioactivity from non-specific binding was determined by replacing compound with 10 μM of 15(R)-15-methyl PGD2 (from Cayman Chemical Company) in the reaction mixtures. The radioactivity bound to the cells in the absence of compound (total binding) was determined by replacing compound with 0.25% of DMSO (dimethyl sulfoxide) in the reaction mixture. Specific binding data were obtained by subtracting the radioactivity of non-specific binding from each binding data.
The IC50 value is defined as the concentration of the tested compound that is required for 50% inhibition of total specific binding. In order to calculate the IC50 value, the percent inhibition data were determined for 7 concentrations for each compound. The percent inhibition for a compound at each concentration was calculated according to the following formula, [1-(specific binding in the presence of compound)/(total specific binding)]×100. The IC50 value was then obtained by fitting the percent inhibition data to a sigmoidal dose-response (4 parameter logistic) model in the XLfit® software Excel add-in program [from ID Business Solutions Ltd., model 205, where F(x)=(A+(B−A)/(1+((C/x)^D)))].

Row | pIC50 | Structure (SMILES)
1 | 8.46 | O=C(O)COc1cc(Cl)cc2c1CCC[C@H]2NS(=O)(=O)c1cc(C(F)(F)F)cc(C(F)(F)F)c1 [Example 1-8]
2 | 7.94 | O=C(O)COc1c(F)c(Cl)cc2c1CCCC2NS(=O)(=O)c1cc(Cl)ccc1Cl (centres unmarked) [Example 1-10]
3 | 8.46 | O=C(O)COc1cc(Cl)cc2c1CCCC2NS(=O)(=O)c1ccc(Cl)cc1Cl (centres unmarked) [Example 1-11, [3-Chloro-5-(2,4-dichloro-benzenesulfonyl-amino)-5,6,7,8-tetrahydro-naphthalen-1-yloxy]-acetic acid]
4 | 7.58 | O=C(O)COc1c(Cl)c(Cl)cc2c1CCCC2NS(=O)(=O)c1cc(C(F)(F)F)cc(C(F)(F)F)c1 (centres unmarked) [Example 1-12, [5-(3,5-Bis-trifluoromethyl-benzenesulfonyl-amino)-2,3-dichloro-5,6,7,8-tetrahydro-naphthalen-1-yloxy]-acetic acid]
5 | 8.15 | O=C(O)COc1cc(Cl)cc2c1CCCC2NS(=O)(=O)c1cc(Cl)ccc1Cl (centres unmarked) [Example 1-13, [3-Chloro-5-(2,5-dichloro-benzenesulfonyl-amino)-5,6,7,8-tetrahydro-naphthalen-1-yloxy]-acetic acid]
6 | 8.44 | O=C(O)COc1cc(Cl)cc2c1CCCC2NS(=O)(=O)c1cc(Br)cc(C(F)(F)F)c1 (centres unmarked) [Example 1-17, [5-(3-Bromo-5-trifluoromethyl-benzenesulfonyl-amino)-3-chloro-5,6,7,8-tetrahydro-naphthalen-1-yloxy]-acetic acid]
7 | 8.54 | O=C(O)COc1cc(Br)cc2c1CCCC2NS(=O)(=O)c1cc(C(F)(F)F)cc(C(F)(F)F)c1 (centres unmarked) [Example 1-19, [5-(3,5-Bis-trifluoromethyl-benzenesulfonyl-amino)-3-bromo-5,6,7,8-tetrahydro-naphthalen-1-yloxy]-acetic acid]
8 | 8.60 | O=C(O)COc1cc(Br)cc2c1CCC[C@H]2NS(=O)(=O)c1cc(C(F)(F)F)cc(C(F)(F)F)c1 [Example 1-20, [(R)-5-(3,5-Bis-trifluoromethyl-benzenesulfonyl-amino)-3-bromo-5,6,7,8-tetrahydro-naphthalen-1-yloxy]-acetic acid]
9 | 7.02 | O=C(O)COc1c(Cl)ccc2c1CCC[C@H]2NS(=O)(=O)c1cc(C(F)(F)F)cc(C(F)(F)F)c1 [Example 1-25, [(R)-5-(3,5-Bis-trifluoromethyl-benzenesulfonyl-amino)-2-chloro-5,6,7,8-tetrahydro-naphthalen-1-yloxy]-acetic acid]

Further lines, the molecule ahead of its results:

Row | Structure (SMILES) | pIC50
10 | O=C(O)COc1c(F)c(Cl)cc2c1CCC[C@H]2NS(=O)(=O)c1cc(C(F)(F)F)cc(C(F)(F)F)c1 [Example 1-1, [(R)-5-(3,5-Bis-trifluoromethyl-benzenesulfonylamino)-3-chloro-2-fluoro-5,6,7,8-tetrahydro-naphthalen-1-yloxy]-acetic acid] | 8.62
11 | Cc1ccc2c(c1OCC(=O)O)CCCC2NS(=O)(=O)c1cc(C(F)(F)F)cc(C(F)(F)F)c1 (centres unmarked) [Example 1-3, [5-(3,5-Bis-trifluoromethyl-benzenesulfonyl-amino)-2-methyl-5,6,7,8-tetrahydro-naphthalen-1-yloxy]-acetic acid] | 6.83
12 | CCc1ccc2c(c1OCC(=O)O)CCCC2NS(=O)(=O)c1cc(C(F)(F)F)cc(C(F)(F)F)c1 (centres unmarked) [Example 1-4, [5-(3,5-Bis-trifluoromethyl-benzenesulfonyl-amino)-2-ethyl-5,6,7,8-tetrahydro-naphthalen-1-yloxy]-acetic acid] | 7.19
13 | Cc1c(Cl)cc2c(c1OCC(=O)O)CCCC2NS(=O)(=O)c1cc(C(F)(F)F)cc(C(F)(F)F)c1 (centres unmarked) [Example 1-5, [5-(3,5-Bis-trifluoromethyl-benzenesulfonyl-amino)-3-chloro-2-methyl-5,6,7,8-tetrahydro-naphthalen-1-yloxy]-acetic acid] | 7.55
14 | O=C(O)COc1cc(Cl)cc2c1CCCC2NS(=O)(=O)c1cc(C(F)(F)F)cc(C(F)(F)F)c1 (centres unmarked) [Example 1-6] | 8.24
15 | O=C(O)COc1c(Cl)ccc2c1CCCC2NS(=O)(=O)c1cc(C(F)(F)F)cc(C(F)(F)F)c1 (centres unmarked) [Example 1-7, [5-(3,5-Bis-trifluoromethyl-benzenesulfonyl-amino)-2-chloro-5,6,7,8-tetrahydro-naphthalen-1-yloxy]-acetic acid] | 6.53
16 | O=C(O)COc1c(F)c(Cl)cc2c1CCCC2NS(=O)(=O)c1cc(C(F)(F)F)cc(C(F)(F)F)c1 (centres unmarked) [Example 1-9, [5-(3,5-Bis-trifluoromethyl-benzenesulfonyl-amino)-3-chloro-2-fluoro-5,6,7,8-tetrahydro-naphthalen-1-yloxy]-acetic acid] | 8.24
17 | O=C(O)COc1c(F)c(Cl)cc2c1CCCC2NS(=O)(=O)c1ccc(Cl)cc1Cl (centres unmarked) [Example 1-14] | 8.11
18 | O=C(O)COc1c(F)c(Cl)cc2c1CCCC2NS(=O)(=O)c1cc(Br)cc(C(F)(F)F)c1 (centres unmarked) [Example 1-15, [5-(3-Bromo-5-trifluoromethyl-benzenesulfonyl-amino)-3-chloro-2-fluoro-5,6,7,8-tetrahydro-naphthalen-1-yloxy]-acetic acid] | 8.10
19 | O=C(O)COc1cc(Cl)cc2c1CCCC2NS(=O)(=O)c1cc(F)cc(C(F)(F)F)c1 (centres unmarked) [Example 1-16, [3-Chloro-5-(3-fluoro-5-trifluoromethyl-benzenesulfonyl-amino)-5,6,7,8-tetrahydro-naphthalen-1-yloxy]-acetic acid] | 8.42
20 | O=C(O)COc1cc(Cl)cc2c1CCC[C@H]2NS(=O)(=O)c1ccc(Cl)cc1Cl [Example 1-18, [(R)-3-Chloro-5-(2,4-dichloro-benzenesulfonyl-amino)-5,6,7,8-tetrahydro-naphthalen-1-yloxy]-acetic acid] | 8.55
21 | O=C(O)COc1c(F)c(Cl)cc2c1CCCC2NS(=O)(=O)c1cc(F)cc(C(F)(F)F)c1 (centres unmarked) [Example 1-21, [3-Chloro-2-fluoro-5-(3-fluoro-5-trifluoromethyl-benzenesulfonyl-amino)-5,6,7,8-tetrahydro-naphthalen-1-yloxy]-acetic acid] | 8.55
22 | O=C(O)COc1c(F)ccc2c1CCCC2NS(=O)(=O)c1cc(C(F)(F)F)cc(C(F)(F)F)c1 (centres unmarked) [Example 1-22, [5-(3,5-Bis-trifluoromethyl-benzenesulfonyl-amino)-2-fluoro-5,6,7,8-tetrahydro-naphthalen-1-yloxy]-acetic acid] | 7.47
23 | COc1cc(OCC(=O)O)c2c(c1)[C@H](NS(=O)(=O)c1cc(C(F)(F)F)cc(C(F)(F)F)c1)CCC2 [Example 1-23, [(R)-5-(3,5-Bis-trifluoromethyl-benzenesulfonyl-amino)-3-methoxy-5,6,7,8-tetrahydro-naphthalen-1-yloxy]-acetic acid] | 8.44
24 | O=C(O)COc1cc(-c2ccccc2)cc2c1CCCC2NS(=O)(=O)c1cc(C(F)(F)F)cc(C(F)(F)F)c1 (centres unmarked) [Example 1-24, [5-(3,5-Bis-trifluoromethyl-benzenesulfonyl-amino)-3-phenyl-5,6,7,8-tetrahydro-naphthalen-1-yloxy]-acetic acid] | 8.43
25 | O=C(O)COc1c(F)c(F)cc2c1CCCC2NS(=O)(=O)c1cc(F)cc(C(F)(F)F)c1 (centres unmarked) [Example 1-26, [2,3-Difluoro-5-(3-fluoro-5-trifluoromethyl-benzenesulfonyl-amino)-5,6,7,8-tetrahydro-naphthalen-1-yloxy]-acetic acid] | 7.37
26 | O=C(O)COc1cc(F)cc2c1CCCC2NS(=O)(=O)c1cc(F)cc(C(F)(F)F)c1 (centres unmarked) [Example 1-27, [3-Fluoro-5-(3-fluoro-5-trifluoromethyl-benzenesulfonyl-amino)-5,6,7,8-tetrahydro-naphthalen-1-yloxy]-acetic acid] | 7.40
